Assay results taken from article PMC3175016 (Journal of applied toxicology : JAT, 2011).
Marks after values point to notes of the source that are not given here.

How the values were obtained:
Assay type in all cases: in vivo
[1] = test system: male Fischer 344 rats; assay: Serum alanine aminotransferase; settings: 24 h; for Change in serum ALT levels: vs corn oil; for serum alanine aminotransferase (ALT) activity: 1.0 mmol/kg i.p. in corn oil, corn oil controls 36.0 ± 11.3
[2] = test system: male Fischer 344 rats; assay: Blood urea nitrogen; settings: for Blood urea nitrogen: i.p. in corn oil, 24 h, mean ± SE, N = 3–4
[3] = test system: male Fischer 344 rats; assay: Urine volume after a single i.p. dose; settings: for Twenty-four-hour urine volume: i.p. in corn oil, mean ± SE, N = 3–4
[4] = test system: male Fischer 344 rats; assay: Six-hour urine protein content after a single i.p. dose; settings: i.p. in corn oil, mean ± SE, N = 3–4
[5] = test system: male Fischer 344 rats; assay: Liver weight 24 h after a single i.p. dose; settings: i.p. in corn oil, mean ± SE, N = 3–4
[6] = test system: male Fischer 344 rats; assay: Kidney weight 24 h after a single i.p. dose; settings: i.p. in corn oil, mean ± SE, N = 3–4
[7] = test system: male Fischer 344 rats; assay: Liver histology; settings: 24 h
[8] = test system: male Fischer 344 rats; assay: Kidney histology; settings: all doses evaluated, i.p., 24 h, vs corn oil
[9] = all four doses (0.2, 0.4, 0.6, 1.0 mmol/kg) i.p.
[10] = dose 0.2 (head mg/kg; text mmol/kg)
[11] = dose 0.4 (head mg/kg; text mmol/kg)
[12] = dose 0.6 (head mg/kg; text mmol/kg)
[13] = dose 1.0 (head mg/kg; text mmol/kg)
[14] = all doses (0.2–1.0 mmol/kg) i.p.

## O=C1SCCN1c1cc(Cl)cc(Cl)c1 [2-DCTD, 3-(3,5-dichlorophenyl)-2-thiazolidinone]
[1]; [9]
  Change in serum ALT levels: did not exhibit any significant changes in serum ALT levels
[2]; [10]
  Blood urea nitrogen: 23.0 ± 1.2^g mg/dl
[2]; [11]
  Blood urea nitrogen: 22.3 ± 1.1^g mg/dl
[2]; [12]
  Blood urea nitrogen: 23.9 ± 0.9^g mg/dl
[2]; [13]
  Blood urea nitrogen: 24.4 ± 0.7^g mg/dl
[3]; [10]
  Twenty-four-hour urine volume: 6.0 ± 0.8^d ml
[3]; [11]
  Twenty-four-hour urine volume: 4.3 ± 0.3^d ml
[3]; [12]
  Twenty-four-hour urine volume: 5.0 ± 0.7^d ml
[3]; [13]
  Twenty-four-hour urine volume: 4.4 ± 1.3^d ml
[4]; [10]
  Six-hour urine protein content: 1.6 ± 0.4^d mg
[4]; [11]
  Six-hour urine protein content: 1.8 ± 0.1^d mg
[4]; [12]
  Six-hour urine protein content: 2.2 ± 0.1^d mg
[4]; [13]
  Six-hour urine protein content: 2.0 ± 0.1^d mg
[5]; [10]
  Liver weight: 3.96 ± 0.10^d g/100% BW
[5]; [11]
  Liver weight: 3.71 ± 0.11^d g/100% BW
[5]; [12]
  Liver weight: 3.74 ± 0.11^d g/100% BW
[5]; [13]
  Liver weight: 3.85 ± 0.15^d g/100% BW
[6]; [10]
  Kidney weight: 0.39 ± 0.01^e g/ 100% BW
[6]; [11]
  Kidney weight: 0.38 ± 0.01^e g/ 100% BW
[6]; [12]
  Kidney weight: 0.40 ± 0.01^e g/ 100% BW
[6]; [13]
  Kidney weight: 0.37 ± 0.01^e g/ 100% BW
[7]; [14]
  Liver morphology: generally normal, although some nuclear condensation was evident
[8]
  Kidney morphology: did not produce any noticeable changes in the kidney morphology

## O=C1CSCN1c1cc(Cl)cc(Cl)c1 [4-DCTD, 3-(3,5-dichlorophenyl)-4-thiazolidinone]
[1]; [9]
  Change in serum ALT levels: did not exhibit any significant changes in serum ALT levels
[2]; [10]
  Blood urea nitrogen: 26.8 ± 1.5^d mg/dl
[2]; [11]
  Blood urea nitrogen: 25.6 ± 1.9^d mg/dl
[2]; [12]
  Blood urea nitrogen: 33.8 ± 2.4*,^e mg/dl
[2]; [13]
  Blood urea nitrogen: 42.5 ± 1.1*,^f mg/dl
[3]; all doses, compared to controls, not dose-dependent
  Diuresis / increase in urine volume: approximately three and a half-fold increase
[3]; [10]
  Twenty-four-hour urine volume: 12.3 ± 1.7*,^c ml
[3]; [11]
  Twenty-four-hour urine volume: 11.3 ± 2.2*,^c ml
[3]; [12]
  Twenty-four-hour urine volume: 9.1 ± 1.6*,^c ml
[3]; [13]
  Twenty-four-hour urine volume: 12.3 ± 1.0*,^c ml
[4]; [10]
  Six-hour urine protein content: 1.8 ± 0.3^c mg
[4]; [11]
  Six-hour urine protein content: 1.6 ± 0.2^c mg
[4]; [12]
  Six-hour urine protein content: 1.9 ± 0.4^c mg
[4]; [13]
  Six-hour urine protein content: 2.8 ± 0.3^c mg
[5]; [10]
  Liver weight: 3.74 ± 0.23^c g/100% BW
[5]; [11]
  Liver weight: 3.96 ± 0.18^c g/100% BW
[5]; [12]
  Liver weight: 3.46 ± 0.09^c g/100% BW
[5]; [13]
  Liver weight: 3.81 ± 0.15^c g/100% BW
[6]; [10]
  Kidney weight: 0.40 ± 0.01^d g/ 100% BW
[6]; [11]
  Kidney weight: 0.37 ± 0.01^d g/ 100% BW
[6]; [12]
  Kidney weight: 0.41 ± 0.01^d g/ 100% BW
[6]; [13]
  Kidney weight: 0.42 ± 0.01^d g/ 100% BW
[7]; [14]
  Liver morphology: no changes in hepatic morphology
[8]
  Kidney morphology: Minor swelling in the proximal tubular cells and slight dilation of collecting tubules

## O=C1CSC(=O)N1c1ccc(Cl)cc1 [CPTD, 3-(4-chlorophenyl)-2,4-thiazolidinedione]
[1]
  serum alanine aminotransferase (ALT) activity: 1622.5 ± 218.5 Sigma-Frankel units/ml
[1]; [9]
  Change in serum ALT levels: significantly elevated
[2]; all dosages, compared to corn oil controls
  Increase in BUN levels: 1.8 fold
[2]; [10]
  Blood urea nitrogen: 37.9 ± 0.6*,^c mg/dl
[2]; [11]
  Blood urea nitrogen: 38.1 ± 1.7*,^c mg/dl
[2]; [12]
  Blood urea nitrogen: 40.4 ± 2.7*,^c mg/dl
[2]; [13]
  Blood urea nitrogen: 34.9 ± 1.8*,^c mg/dl
[3]; [10]
  Twenty-four-hour urine volume: 5.7 ± 1.5^b ml
[3]; [11]
  Twenty-four-hour urine volume: 12.4 ± 4.6*,^c ml
[3]; [12]
  Twenty-four-hour urine volume: 16.6 ± 0.8*,^c ml
[3]; [13]
  Twenty-four-hour urine volume: 15.3 ± 2.7*,^c ml
[4]; [10]
  Six-hour urine protein content: 2.0 ± 0.1^c mg
[4]; [11]
  Six-hour urine protein content: 1.9 ± 0.1^c mg
[4]; [12]
  Six-hour urine protein content: 2.0 ± 0.1^c mg
[4]; [13]
  Six-hour urine protein content: 1.9 ± 0.1^c mg
[5]; [10]
  Liver weight: 3.62 ± 0.16^c g/100% BW
[5]; [11]
  Liver weight: 3.84 ± 0.07^c g/100% BW
[5]; [12]
  Liver weight: 4.36 ± 0.06*,^d g/100% BW
[5]; [13]
  Liver weight: 3.98 ± 0.14*,^c g/100% BW
[6]; [10]
  Kidney weight: 0.39 ± 0.02^b g/ 100% BW
[6]; [11]
  Kidney weight: 0.41 ± 0.01^b g/ 100% BW
[6]; [12]
  Kidney weight: 0.46 ± 0.02*,^c g/ 100% BW
[6]; [13]
  Kidney weight: 0.51 ± 0.04*,^c g/ 100% BW
[7]; 1.0 mmol/kg i.p.
  Liver morphology: signs of liquefactive necrosis
[7]; [14]
  Liver morphology: necrotic lesions with acute inflammatory response
[8]
  Kidney morphology: minor swelling in some proximal tubular cells

## O=C1CSC(=O)N1c1cc(C(F)(F)F)cc(C(F)(F)F)c1 [DFMPT, 3-[3,5-bis(trifluoromethyl)phenyl]-2,4-thiazolidinedione]
[1]; [9]
  Change in serum ALT levels: normal
[2]; [10]
  Blood urea nitrogen: 19.6 ± 0.5^e mg/dl
[2]; [11]
  Blood urea nitrogen: 21.7 ± 0.4^e mg/dl
[2]; [12]
  Blood urea nitrogen: 22.5 ± 0.5^e mg/dl
[2]; [13]
  Blood urea nitrogen: 32.7 ± 1.4*,^f mg/dl
[3]; [10]
  Twenty-four-hour urine volume: 10.1 ± 1.3*,^f ml
[3]; [11]
  Twenty-four-hour urine volume: 14.1 ± 2.6*,^f,^g ml
[3]; [12]
  Twenty-four-hour urine volume: 20.0 ± 3.1*,^g,^h ml
[3]; [13]
  Twenty-four-hour urine volume: 23.5 ± 1.8*,^h ml
[4]; [10]
  Six-hour urine protein content: 1.1 ± 0.3^e mg
[4]; [11]
  Six-hour urine protein content: 1.6 ± 0.2^e mg
[4]; [12]
  Six-hour urine protein content: 1.5 ± 0.2^e mg
[4]; [13]
  Six-hour urine protein content: 1.0 ± 0.2^e mg
[5]; [10]
  Liver weight: 3.82 ± 0.12^f g/100% BW
[5]; [11]
  Liver weight: 3.59 ± 0.10^f g/100% BW
[5]; [12]
  Liver weight: 3.78 ± 0.07^f g/100% BW
[5]; [13]
  Liver weight: 4.05 ± 0.15*,^f g/100% BW
[6]; [10]
  Kidney weight: 0.40 ± 0.01^g g/ 100% BW
[6]; [11]
  Kidney weight: 0.42 ± 0.03^g g/ 100% BW
[6]; [12]
  Kidney weight: 0.30 ± 0.09^g g/ 100% BW
[6]; [13]
  Kidney weight: 0.48 ± 0.01*,^h g/ 100% BW
[7]; [14]
  Liver morphology: did not show any noticeable changes in morphology
[8]
  Kidney morphology: minor swelling in some proximal tubular cells

## Cc1cc(C)cc(N2C(=O)CSC2=O)c1 [DMPT, 3-(3,5-dimethylphenyl)-2,4-thiazolidinedione]
[1]
  serum alanine aminotransferase (ALT) activity: 2071.9 ± 217.8 Sigma-Frankel units/ml
[1]; all doses except the lowest (0.4, 0.6, 1.0 mmol/kg) i.p.
  Change in serum ALT levels: marked increases in serum ALT levels
[2]; [10]
  Blood urea nitrogen: 18.1 ± 1.3^a mg/dl
[2]; [11]
  Blood urea nitrogen: 22.2 ± 0.4^a mg/dl
[2]; [12]
  Blood urea nitrogen: 27.5 ± 1.4*,^b mg/dl
[2]; [13]
  Blood urea nitrogen: 32.8 ± 3.1*,^b mg/dl
[3]; [10]
  Twenty-four-hour urine volume: 5.8 ± 1.4*,^a ml
[3]; [11]
  Twenty-four-hour urine volume: 9.9 ± 2.2*,^a ml
[3]; [12]
  Twenty-four-hour urine volume: 8.9 ± 1.8*,^a ml
[3]; [13]
  Twenty-four-hour urine volume: 11.3 ± 2.5*,^a ml
[4]; [10]
  Six-hour urine protein content: 0.8 ± 0.3^a mg
[4]; [11]
  Six-hour urine protein content: 1.4 ± 0.1^a mg
[4]; [12]
  Six-hour urine protein content: 1.9 ± 0.2^a mg
[4]; [13]
  Six-hour urine protein content: 2.8 ± 0.4*,^b mg
[5]; [10]
  Liver weight: 3.47 ± 0.20^a g/100% BW
[5]; [11]
  Liver weight: 4.10 ± 0.20*,^b g/100% BW
[5]; [12]
  Liver weight: 4.20 ± 0.05*,^b g/100% BW
[5]; [13]
  Liver weight: 3.97 ± 0.04*,^b g/100% BW
[6]; [10]
  Kidney weight: 0.38 ± 0.01^a g/ 100% BW
[6]; [11]
  Kidney weight: 0.40 ± 0.02^a g/ 100% BW
[6]; [12]
  Kidney weight: 0.39 ± 0.00^a g/ 100% BW
[6]; [13]
  Kidney weight: 0.38 ± 0.01^a g/ 100% BW
[7]; 0.2 and 0.4 mmol/kg i.p.
  Liver morphology: necrotic lesions with infiltration of inflammatory cells, neutrophils and lymphocytes
[7]; 0.6 and 1.0 mmol/kg i.p.
  Liver morphology: necrotic lesions were widespread with many inflammatory cells seen around the lesions
[8]
  Kidney morphology: normal
